{
  "source": "patent US8420605B2",
  "about": "“Hydrogel compositions” (The University of Strathclyde, priority 2005, dated 2013)",
  "key": {"[1]": {"assay": "Preparation of self-assembled peptide hydrogels by pH adjustment (gel formation)", "assay_type": "physicochemical", "protocol": "Fmoc peptides (from BACHEM Ltd) were weighed out into 4 ml glass vials. 2 ml purified water was added followed by sonication for 30-60 seconds. 0.5M NaOH solution was added in 50 μl droplets until a clear solution was formed. 0.1M HCl was added to the solution by stepwise addition of 50 μl followed by mixing using a vortex. pH values were estimated by transferring a spatula tip of hydrogel onto universal indicator paper.\nSelf-assembled scaffolds were prepared by first suspending the Fmoc-dipeptide in purified water. Upon increase of the pH by addition of concentrated NaOH (thus de-protonating the carboxylic acid group) to a value of >8, a clear solution was obtained. To this solution, concentrated hydrochloric acid was added drop wise until the pH of the solution became 7, at which point a clear, self-supporting gel was formed.\nTable 3 below identifies various peptide derivatives (incorporating an aromatic stacking ligand) and mixtures thereof that formed gels at a pH of 6-8 at the indicated concentrations: […]"}, "Human dermal fibroblasts": {"test_system": "Human dermal fibroblasts", "assay": "Cell phenotype and size comparison in RGD/RGE-containing hydrogels (inverted optic microscope)", "assay_type": "cell-based", "conditions": "after 24 hours, 3D culture, 1 mM/L RGD or RGE peptide with Fmoc-Phe-Phe-OH", "protocol": "Fmoc-SEQ. ID. NO. 1-OH (Fmoc-SEQ. ID. NO. 1) adhesion motifs were introduced to tackle the issue of un-spreaded cells in Fmoc-Phe-Phe-OH gels therefore to induce spreading and focal adhesion of dermal fibroblasts in these self-assembled peptide hydrogels. Fmoc-Phe-Phe-OH and Fmoc-Phe-Phe-OH+Fmoc-SEQ. ID. NO. 2-OH (Fmoc-SEQ. ID. NO. 2) combination were set as comparisons.\n0.0014 grams of Fmoc-SEQ. ID. NO. 1or Fmoc-SEQ. ID. NO. 2(1 mM/L in later hydrogels), were weighed and mixed with 0.0107 grams Fmoc-Phe-Phe-OH respectively into glass vials, and 0.0107 grams Fmoc-Phe-Phe-OH alone was weighed as well. The above peptide and peptide mixtures were sterilized for 30 minutes by an ultraviolet light exposure with bottles of distilled water, filtered NaOH (Sodium Hydroxide, 0.5 M/L), filtered HCl (Hydrochloric Acid, 0.5 M/L), and relevant apparatus (spatulas, pipettes, Vortex). 2 mL of the sterile distilled water was then added into each glass vial of Fmoc-Phe-Phe-OH, Fmoc-Phe-Phe-OH+Fmoc-SEQ. ID. NO. 1, and Fmoc-Phe-Phe-OH+Fmoc-SEQ. ID. NO. 2, and the mixtures were vortexed for a few seconds to create suspensions. […] The basic peptide solutions (pH around 10) were finally neutralized to pH 7 by dropwise addition of HCl and pH values were monitored by a pH meter with a micro-probe. […]"}, "[2]": {"test_system": "Human mesenchymal stem cells (MSCs)", "assay": "PCR gene expression of cells cultured in gels for 14 days", "assay_type": "cell-based", "conditions": "after 14 days", "protocol": "Human mesenchymal stem cells (MSCs) were isolated from bone marrow taken from patients (with both patient and ethical consent) undergoing hip replacement surgery.A HISTOPAQUE (SIGMA-ALDRICH) gradient was used to isolate mononuclear cells and these cells were cultured in monolayer with α-MEM (with 10% heat-inactivated foetal calf serum, 100 U/ml streptomycin/penicillin and 0.85 mM ascorbic acid) under standard culture conditions (humidified atmostphere, 37° C., 5% CO2). After 5 days non-adherent cells were removed by washing with media.\nAt 80% confluence in passage 3 the MSCs were trypsinised and a cell count was performed. A suitable number of cells were centrifuged at 400 g for 5 minutes and then resuspended in a 10 mM Fmoc-Phe-Phe solution to a final concentration of 4×10^6 cells/ml. The cell suspension was mixed to ensure even cell distribution and 200 μl layers were pipetted into high pore density (0.4 μm pore size) cell culture inserts in 24-well plates. Media (α-MEM as previously described) was added gently to both the well and the insert and gels were allowed to polymerise.\nThe cell-seeded gels were then cultured under standard conditions for 14 days with media changed every 2 days. Following culture 1 ml of TRIZOL was added to each insert and the gels disrupted by pipetting. A modified RNA extraction procedure was performed combining both the TRIZOL and PURELINK (INVITROGEN) extraction procedures. RNA was reverse transcribed to cDNA using SUPERSCRIPT II (INVITROGEN) and PCR performed using a standard HOTSTARTAQ (QIAGEN) procedure for the house-keeping gene GAPDH as well as the transcription factor SOX-9, aggrecan and collagen types I and II.\nPCR products were run on a 1.5% agarose gel containing ethidium bromide and visualised on a UV-transilluminator."}},
  "note": "Peptide text beside a SMILES is read from it. * marks the point of attachment. Fmoc = O=C(OCC1c2ccccc2-c2ccccc21)*",
  "data": [
    {"smiles": "O=C(N[C@@H](Cc1ccccc1)C(=O)N[C@@H](Cc1ccccc1)C(=O)O)OCC1c2ccccc2-c2ccccc21", "note": "[Entry 1, Fmoc-Phe-Phe-OH] (Fmoc-Phe-Phe-OH)", "values": [
      {"measurement": "Gel?", "setting": "[1]; Component 1 10 mM/L, pH 7", "result": "✓"},
      {"measurement": "Concentration", "setting": "[1]; Properties of self-assembled Fmoc-dipeptides (Table 1), concentration range of gel", "result": "2900 to 30000", "unit": "µM"},
      {"measurement": "pH", "setting": "[1]; Properties of self-assembled Fmoc-dipeptides (Table 1), pH range of gel", "result": "4-8"},
      {"measurement": "pH", "setting": "[1]; pH at which the gel formed at the indicated concentrations (Table 3)", "result": 7},
      {"measurement": "average cell size", "setting": "Human dermal fibroblasts", "result": "around 20 microns"},
      {"measurement": "cell viability (from gene expression)", "setting": "[2]", "result": "viable cells present"},
      {"measurement": "expression of GAPDH", "setting": "[2]; 10 mM gel", "result": "expression"},
      {"measurement": "expression of SOX-9", "setting": "[2]; 10 mM gel", "result": "lack of expression"},
      {"measurement": "expression of aggrecan", "setting": "[2]; 10 mM gel", "result": "lack of expression"},
      {"measurement": "expression of type I collagen", "setting": "[2]; 10 mM gel", "result": "expression"},
      {"measurement": "expression of type II collagen", "setting": "[2]; 10 mM gel", "result": "lack of expression"}
    ]}
  ]
}
